Results from US9850283B2, “Macrocyclic inhibitors of the PD-1/PD-L1 and CD80(B7-1)/PD-L1 protein/protein interactions” (BRISTOL-MYERS SQUIBB COMPANY, priority 2013, dated 2017).
Like-named read-outs stand apart in the source and are kept apart here. Starred links: 1 amine or outer side, 2 acyl side, 3 side chain; linkers in the order of their positions; H or OH if unused. Positions of bridges follow the written chain, without caps; N, C: chain ends. Non-standard residues stand in square brackets, D forms with d. Residues, ends and D or L forms follow the SMILES beside them. ξ: configuration not given here. X3 = O=C([C@@H]1C[C@@H](Cc2ccc(F)cc2)CN1[*:1])[*:2]; Hyp = O=C(O)[C@@H]1C[C@@H](O)CN1; NMeF = CN[C@@H](Cc1ccccc1)C(=O)O; dNMeNle = CCCC[C@@H](NC)C(=O)O; NMeNle = CCCC[C@H](NC)C(=O)O; ξY = NC(Cc1ccc(O)cc1)C(=O)O; NMeA = CN[C@@H](C)C(=O)O; dDap = NC[C@@H](N)C(=O)O; Dab = NCC[C@H](N)C(=O)O; ξP = O=C(O)C1CCCN1; Sar = CNCC(=O)O

Experiments:
[1] = target: T1, LK35.2-hPD-L1 cells / PE-labeled PD-1-Ig (Homo sapiens, UniProt Q9NZQ7); assay: LK35.2-hPD-L1 cell binding high-content screening assay; type: cell-based
T1 construct: expressed in transfected cells; host or cells: LK35.2 mouse B cell line
T1 sequence (Q9NZQ7 19-290): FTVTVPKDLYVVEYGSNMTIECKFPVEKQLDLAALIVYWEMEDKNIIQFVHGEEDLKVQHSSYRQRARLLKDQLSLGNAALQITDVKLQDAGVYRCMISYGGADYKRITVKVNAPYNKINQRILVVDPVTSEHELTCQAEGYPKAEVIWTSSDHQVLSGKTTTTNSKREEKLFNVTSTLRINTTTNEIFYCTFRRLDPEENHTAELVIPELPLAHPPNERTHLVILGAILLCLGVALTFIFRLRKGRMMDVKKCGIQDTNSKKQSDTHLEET
How it was run: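 Fluorescent PD-1-Ig binding to PD-L1-expressing LK35.2 cells, imaged after washing. Conditions: 1 nM PE-PD-1-Ig, 37 °C, 1 h, RPMI with 10% fetal calf serum.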

CMV-specific T cells = CMV-specific T cells (Homo sapiens, UniProt Q9NZQ7); assay: CMV-specific T cell function assay (IFNγ secretion, ELISA); type: cell-based
CMV-specific T cells, sequence (Q9NZQ7 19-290): as above
Protocol: CMV-specific T Cell Function Assay. […] AIM-V medium (Life Technologies, Grand Island, N.Y.) supplemented with 10% heat-inactivated fetal bovine serum (FBS, Sigma, St Louis, Mo.) was used at a total volume of 200 µL/well in triplicate. The cells were cultured for 4 days at 37° C., 5% CO2 at which time culture supernatant was harvested for determination of secreted IFNγ by ELISA (OptEIA hIFNγ ELISA Kit, BD Biosciences, San Jose, Calif.).

Human PD-L1/PD-1 = target: T2, Human PD-L1/PD-1 (Homo sapiens, UniProt Q9NZQ7); assay: HTRF PD-1-Ig/PD-L1-His binding assay (human PD-L1)
T2 construct: made in house; host or cells: HEK293T
T2 sequence (Q9NZQ7 with tags, fused parts or gaps): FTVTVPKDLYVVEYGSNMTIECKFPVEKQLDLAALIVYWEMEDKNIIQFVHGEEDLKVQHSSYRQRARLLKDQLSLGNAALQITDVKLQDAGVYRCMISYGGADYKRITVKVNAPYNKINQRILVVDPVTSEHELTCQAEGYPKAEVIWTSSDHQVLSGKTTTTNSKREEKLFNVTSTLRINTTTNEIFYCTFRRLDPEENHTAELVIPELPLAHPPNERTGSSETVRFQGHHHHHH
How it was run: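 Interaction of Fc-tagged soluble PD-1 with His-tagged soluble PD-L1 is monitored by time-resolved FRET. Donor is europium cryptate anti-Ig (1 nM final) and acceptor is APC anti-His (20 nM final). Assay buffer is dPBS with 0.1% BSA and 0.05% Tween-20.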

Hu PD-L1/PD-1 = Hu PD-L1/PD-1 (Homo sapiens, UniProt Q9NZQ7); assay: Cell binding assay Hu PD-L1/PD-1 (Tables 11-13, cell line not given); type: cell-based
Hu PD-L1/PD-1, sequence (Q9NZQ7 19-290): as the sequence (Q9NZQ7 19-290) above
Protocol: The ability of the macrocyclic peptides of the present disclosure to bind to Jurkat, mouse B cell line (LK35.2), and a human lung adenocarcinoma cell line (L2987) was investigated. Jurkat-PD-1 Cell Binding Assay. Phycoerythrin (PE) was covalently linked to the Ig epitope tag of human PD-L1-Ig and fluorescently-labeled PD-L1-Ig was used for binding studies with a Jurkat cell line over-expressing human PD-1 (Jurkat-PD-1). […] Cells were washed 3× in dPBS. Cells were resuspended in 200 μl of dPBS and binding was measured by flow cytometry. LK35.2-hPD-L1 Cell Binding Assay. Phycoerythrin (PE) was covalently linked to the Ig eptitope tag of human PD-1-Ig and fluorescently-labeled PD-1-Ig was used for binding studies with a mouse B cell line (LK35.2) stably over-expressing human PD-L1 (LK35.2-hPD-L1). Briefly, […] LK35.2-hPD-L1 cells were pre-incubated with inhibitor for 15 m in a 30 μl volume of RPMI supplemented with 2% fetal calf serum. 20 μl of PE-labeled PD-1-Ig (2 nM final), diluted in RPMI supplemented with 2% fetal calf serum, was dispensed on top of cells and inhibitor and binding was allowed to take place for 1 h at room temperature. Cells were washed 3× in dPBS. Cells were resuspended in 200 μl of dPBS and binding was measured by flow cytometry. L2987 Cellomics Cell Binding Assay. Phycoerythrin (PE) was covalently linked to the Ig eptitope tag of human PD-1-Ig and fluorescently-labeled PD-1-Ig was used for binding studies with a human lung adenocarcinoma cell line (L2987) which naturally expresses PD-L1. […] The following day, inhibitors were diluted in serum-free DMEM and 25 μl was dispensed on top of cells. […] Samples were incubated for 1 h at 37° C. followed by 2 washes in dPBS and fixation for 30 m with 4% paraformaldehyde. Samples were further washed 2× in dPBS. Hoechst (final 1 μg/ml) was added to final wash to stain nuclei. Plates were processed using a Cellomics […]®.

[2] = cell binding assay, cell line not given, value given instead of cluster, read-out: CBA IC50 value
[3] = value given instead of cluster, read-out: CMV Recall EC50 value
[4] = value given instead of cluster, read-out: HTRF IC50 value
[5] = Table 8, Compound No. 1 variant macrocyclic peptides, read-out: HTRF Human PD-L1/PD-1 Binding Assay IC50
[6] = Table 13, Compound No. 71 series
[7] = Table 9, Compound No. 71 variant macrocyclic peptides, read-out: HTRF Human PD-L1/PD-1 Binding Assay IC50

Compound	IC50 [1, 2] [nM]	EC50 (CMV-specific T cells; [3]) [nM]	IC50 (Human PD-L1/PD-1; [4]) [nM]	IC50 (Hu PD-L1/PD-1) [nM]	IC50 (Human PD-L1/PD-1; [5]) [nM]	further results
CCCC[C@H]1C(=O)N(C)[C@@H](CCCC)C(=O)N[C@@H](CCCNC(=N)N)C(=O)N[C@H](C(=O)NCC(N)=O)CSCC(=O)N[C@@H](Cc2ccc(O)cc2)C(=O)N(C)[C@@H](C)C(=O)N[C@@H](CCN)C(=O)N2CCC[C@H]2C(=O)N[C@@H](Cc2cnc[nH]2)C(=O)N[C@@H](CCC(=O)O)C(=O)N2C[C@H](O)C[C@H]2C(=O)N[C@@H](Cc2c[nH]c3ccccc23)C(=O)N[C@@H](CO)C(=O)N[C@@H](Cc2c[nH]c3ccccc23)C(=O)N1C [Example 5025] ({CH2CO}-Y[NMeA][Dab]PHE[Hyp]WSW[NMeNle][NMeNle]RCG-NH2; thioether N-14)	1.16	2.3	7.43	–	–	–
CCCC[C@H]1C(=O)N([13CH3])[C@@H](CCCC)C(=O)N[C@@H](CCCNC(=N)N)C(=O)N[C@H](C(=O)NCC(N)=O)CSCC(=O)N[C@@H](Cc2ccc(O)cc2)C(=O)N([13CH3])[C@@H](C)C(=O)N[C@@H](CC(N)=O)C(=O)N2CCC[C@H]2C(=O)N[C@@H](Cc2cnc[nH]2)C(=O)N[C@@H](CC(C)C)C(=O)N2CCC[C@H]2C(=O)N[C@@H](Cc2c[nH]c3ccccc23)C(=O)N[C@@H](CO)C(=O)N[C@@H](Cc2csc3ccccc23)C(=O)N1[13CH3] [Example 6035]	0.763	5.75	4.97	–	–	–
CCCC[C@H]1C(=O)N(C)[C@@H](CCCC)C(=O)N[C@@H](CCN)C(=O)N[C@H](C(=O)NCC(N)=O)CSCC(=O)N[C@@H](Cc2ccc(O)cc2)C(=O)N(C)[C@@H](C)C(=O)N[C@@H](CCN)C(=O)N2CCC[C@H]2C(=O)N[C@@H](Cc2c[nH]cn2)C(=O)N[C@@H](CCC(=O)O)C(=O)N2C[C@H](O)C[C@H]2C(=O)N[C@@H](Cc2c[nH]c3ccccc23)C(=O)N[C@@H](CO)C(=O)N[C@@H](Cc2c[nH]c3ccccc23)C(=O)N1C [Example 5093] ({CH2CO}-Y[NMeA][Dab]PHE[Hyp]WSW[NMeNle][NMeNle][Dab]CG-NH2; thioether N-14)	3.14	100	6.76	–	–	–
CCCC[C@@H]1C(=O)N(C)[C@H](CCCC)C(=O)N[C@@H](C)C(=O)N[C@@H](C(=O)NCC(N)=O)CSCC(=O)N[C@@H](Cc2ccc(O)cc2)C(=O)N2CCCC2C(=O)N[C@H](CC(=O)O)C(=O)N2CCC[C@H]2C(=O)N[C@H](CN)C(=O)N[C@@H](CC(=O)O)C(=O)N2CCCC2C(=O)N[C@H](Cc2c[nH]c3ccccc23)C(=O)N[C@@H](CCN)C(=O)N[C@@H](Cc2c[nH]c3ccccc23)C(=O)N1C (some centres unmarked) [Example 1210] ({CH2CO}-Y[ξP][dD]P[dDap]D[ξP][dW][Dab]W[dNMeNle][dNMeNle]A[dC]G-NH2; thioether N-14)	–	–	–	–	–	IC50 ([1]; cluster symbol, cell line of CBA not given (LK35.2-hPD-L1 or 293T-hPD-L1), read-out: CBA IC50 cluster): > 74.3 nM; EC50 (CMV-specific T cells; read-out: CMV Recall EC50 value): > 2500 nM; IC50 (Human PD-L1/PD-1; cluster symbol, read-out: HTRF IC50 cluster): > 30.5 nM
CCCC[C@H]1C(=O)N(C)[C@@H](CCCC)C(=O)N[C@@H](CCN)C(=O)N[C@H](C(=O)NCC(N)=O)CSCC(=O)N[C@@H](Cc2ccc(O)cc2)C(=O)N(C)[C@@H](C)C(=O)N[C@@H](CC(N)=O)C(=O)N2CCC[C@H]2C(=O)N[C@@H](Cc2c[nH]cn2)C(=O)N[C@@H](CCC(=O)O)C(=O)N2C[C@H](Cc3ccc(F)cc3)C[C@H]2C(=O)N[C@@H](Cc2c[nH]c3ccccc23)C(=O)N[C@@H](CCN)C(=O)N[C@@H](Cc2c[nH]c3ccccc23)C(=O)N1C [Example 13011] ({CH2CO}-Y[NMeA]NPHE[X3]W[Dab]W[NMeNle][NMeNle][Dab]CG-NH2; thioether N-14)	–	–	–	–	–	EC50 (CMV-specific T cells; numeric value, read-out: CMV Recall EC50 values): 38.3 nM
CCCC[C@H]1C(=O)N(C)[C@@H](CCCC)C(=O)N[C@@H](CCCNC(=N)N)C(=O)N[C@H](C(=O)NCC(N)=O)CSCC(=O)N[C@@H](Cc2ccccc2)C(=O)N(C)[C@@H](C)C(=O)N[C@@H](CC(N)=O)C(=O)N2CCC[C@H]2C(=O)N[C@@H](Cc2cnc[nH]2)C(=O)N[C@@H](CC(C)C)C(=O)N(C)CC(=O)N[C@@H](Cc2c[nH]c3ccccc23)C(=O)N[C@H](CC(N)=O)C(=O)N[C@@H](Cc2c[nH]c3ccccc23)C(=O)N1C [Compound No. 58] ({CH2CO}-F[NMeA]NPHL[Sar]W[dN]W[NMeNle][NMeNle]RCG-NH2; thioether N-14)	–	–	–	> 10000	8980	–
CCCC[C@H]1C(=O)N(C)[C@@H](CCCC)C(=O)N[C@@H](CCCNC(=N)N)C(=O)N[C@H](C(=O)NCC(N)=O)CSCC(=O)N[C@@H](Cc2ccccc2)C(=O)N(C)[C@@H](C)C(=O)N[C@@H](CC(N)=O)C(=O)N2CCCC2C(=O)N[C@@H](Cc2cnc[nH]2)C(=O)N[C@@H](CC(C)C)C(=O)N(C)CC(=O)N[C@@H](Cc2c[nH]c3ccccc23)C(=O)N[C@@H](C)C(=O)N[C@@H](Cc2c[nH]c3ccccc23)C(=O)N1C (some centres unmarked) [Compound No. 16] ({CH2CO}-F[NMeA]N[ξP]HL[Sar]WAW[NMeNle][NMeNle]RCG-NH2; thioether N-14)	–	–	–	13	5	–
CCCC[C@H]1C(=O)N(C)[C@@H](C)C(=O)N[C@@H](CC(=O)O)C(=O)N[C@@H](C(C)C)C(=O)N(C)[C@@H](Cc2ccccc2)C(=O)N[C@@H](Cc2ccc(O)cc2)C(=O)N(C)CC(=O)N[C@@H](Cc2c[nH]c3ccccc23)C(=O)N[C@@H](Cc2ccc(O)cc2)C(=O)N[C@@H](CC(C)C)C(=O)N[C@H](C(=O)NCC(N)=O)CSCC(=O)N[C@@H](Cc2ccccc2)C(=O)N(C)[C@@H](Cc2ccccc2)C(=O)N1C [Compound No. 77] (HELM PEPTIDE1{[O=C(C[*:3])[*:2]].F.[meF].[CCCC[C@@H](C(=O)[*:2])N(C)[*:1]].[meA].D.V.[meF].Y.[Sar].W.Y.L.C.G.[am]}$PEPTIDE1,PEPTIDE1,1:R3-14:R3$$$V2.0)	–	–	–	–	–	IC50 (Hu PD-L1/PD-1; [6]): 16 nM; IC50 (Human PD-L1/PD-1; [7]): 24 nM
CCCC[C@H]1C(=O)N(C)CC(=O)N[C@@H](CC(=O)O)C(=O)N[C@@H](C(C)C)C(=O)N(C)[C@@H](Cc2ccccc2)C(=O)N[C@@H](Cc2ccc(O)cc2)C(=O)N(C)CC(=O)N[C@@H](Cc2c[nH]c3ccccc23)C(=O)NC(Cc2ccc(O)cc2)C(=O)N[C@@H](CC(C)C)C(=O)N[C@H](C(=O)NCC(N)=O)CSCC(=O)N[C@@H](Cc2ccccc2)C(=O)N[C@@H](Cc2ccccc2)C(=O)N1C (some centres unmarked) [Compound No. 74] ({CH2CO}-FF[NMeNle][Sar]DV[NMeF]Y[Sar]W[ξY]LCG-NH2; thioether N-13)	–	–	–	–	–	IC50 (Hu PD-L1/PD-1; [6]): > 10000 nM; IC50 (Human PD-L1/PD-1; [7]): > 10000 nM
CCCC[C@H]1C(=O)N(C)[C@@H](CCCC)C(=O)N[C@@H](C)C(=O)N[C@H](C(=O)NCC(N)=O)CSCC(=O)N[C@@H](Cc2ccccc2)C(=O)N(C)[C@@H](C)C(=O)N[C@@H](CC(N)=O)C(=O)N2CCCC2C(=O)N[C@@H](Cc2cnc[nH]2)C(=O)N[C@@H](CC(C)C)C(=O)N(C)CC(=O)N[C@@H](Cc2c[nH]c3ccccc23)C(=O)N[C@@H](CO)C(=O)N[C@@H](Cc2c[nH]c3ccccc23)C(=O)N1C (some centres unmarked) [Compound No. 22]	–	–	–	28	3	–
